How the values were obtained:
Androgen receptor [1] = molecular target: T1, Androgen receptor (Homo sapiens, UniProt P10275); assay: Binding affinity against hAR androgen receptor expressed in COS cells; format: cell-based
T1 sequence (P10275 whole entry): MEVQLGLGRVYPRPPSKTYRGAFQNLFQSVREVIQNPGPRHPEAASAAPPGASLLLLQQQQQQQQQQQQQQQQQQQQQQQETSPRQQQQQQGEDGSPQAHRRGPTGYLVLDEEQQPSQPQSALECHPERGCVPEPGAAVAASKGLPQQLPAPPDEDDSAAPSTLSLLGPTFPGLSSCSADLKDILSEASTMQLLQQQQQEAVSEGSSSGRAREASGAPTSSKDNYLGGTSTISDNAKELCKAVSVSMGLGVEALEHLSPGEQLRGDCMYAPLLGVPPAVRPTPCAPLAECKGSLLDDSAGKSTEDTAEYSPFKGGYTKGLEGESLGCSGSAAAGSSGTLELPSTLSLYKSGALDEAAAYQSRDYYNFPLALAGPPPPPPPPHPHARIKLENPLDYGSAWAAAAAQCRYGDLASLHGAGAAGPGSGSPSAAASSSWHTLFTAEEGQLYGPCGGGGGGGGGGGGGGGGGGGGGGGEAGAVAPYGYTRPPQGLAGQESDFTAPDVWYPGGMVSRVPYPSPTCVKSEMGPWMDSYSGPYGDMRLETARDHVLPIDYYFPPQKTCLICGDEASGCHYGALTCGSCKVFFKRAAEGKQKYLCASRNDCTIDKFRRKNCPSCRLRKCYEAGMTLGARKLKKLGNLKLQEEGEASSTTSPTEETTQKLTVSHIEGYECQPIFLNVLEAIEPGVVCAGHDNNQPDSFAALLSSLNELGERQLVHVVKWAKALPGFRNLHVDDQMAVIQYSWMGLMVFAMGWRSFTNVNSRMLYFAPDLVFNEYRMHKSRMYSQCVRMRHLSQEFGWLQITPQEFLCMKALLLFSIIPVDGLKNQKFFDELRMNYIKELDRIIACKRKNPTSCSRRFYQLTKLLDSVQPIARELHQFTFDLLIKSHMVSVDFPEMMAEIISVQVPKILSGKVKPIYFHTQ

Androgen receptor [2] = molecular target: T1, Androgen receptor; conditions: cv-1
Description: Agonistic activity against human androgen receptor (hAR) in co-transfected CV-1 cell

Androgen receptor [3] = molecular target: T1, Androgen receptor
Description: Antagonistic activity (IC50) against human androgen receptor (hAR) in co-transfected CV-1 cell

Row | SMILES | Ki (Androgen receptor [1]) [µM] | EC50 (Androgen receptor [2]) | IC50 (Androgen receptor [3]) [µM]
1 | CN1CCc2cc3c(C(F)(F)F)cc(=O)n(C)c3cc21 | 0.167 | Not Active | 0.197
2 | CC1(C)CCC[C@@H]2c3cc4c(C(F)(F)F)cc(O)nc4cc3N[C@@H]21 | 0.079 | Not Active | 0.026
3 | CN1c2cc3c(cc2[C@H]2CCCC(C)(C)[C@H]21)c(C(F)(F)F)cc(=O)n3C | 0.059 | Not Active | 0.027

From ChEMBL document CHEMBL1130772, “New nonsteroidal androgen receptor modulators based on 4-(trifluoromethyl)-2(1H)-pyrrolidino[3,2-g] quinolinone” (Bioorg Med Chem Lett, 1998)
